Experimental data reported in patent publication US20100022509A1, “Inhibitors of MshC and Homologs Thereof, and Methods of Identifying Same” (priority 2006, published 2010).
Read-outs that look alike come from different tables or passages of the source. Marks after values point to notes of the source that are not given here.

Key:
Type in all cases: biochemical, M. tuberculosis
MshC [1] = target: T1, MshC (Mycobacterium tuberculosis, UniProt P9WJM9); experiment: Inhibition studies of MshC ligase activity (HEPES pH 7.5, HPLC); conditions: for inhibition of the ligase activity, in words: 80-1600 μM, 70 μM L-Cys and 50 μM GlcN-Ins; for % inhibition: [inhibitor] 1600 μM, 50 μM GlcN-Ins and 70 μM Cys
T1 sequence (P9WJM9 1-414): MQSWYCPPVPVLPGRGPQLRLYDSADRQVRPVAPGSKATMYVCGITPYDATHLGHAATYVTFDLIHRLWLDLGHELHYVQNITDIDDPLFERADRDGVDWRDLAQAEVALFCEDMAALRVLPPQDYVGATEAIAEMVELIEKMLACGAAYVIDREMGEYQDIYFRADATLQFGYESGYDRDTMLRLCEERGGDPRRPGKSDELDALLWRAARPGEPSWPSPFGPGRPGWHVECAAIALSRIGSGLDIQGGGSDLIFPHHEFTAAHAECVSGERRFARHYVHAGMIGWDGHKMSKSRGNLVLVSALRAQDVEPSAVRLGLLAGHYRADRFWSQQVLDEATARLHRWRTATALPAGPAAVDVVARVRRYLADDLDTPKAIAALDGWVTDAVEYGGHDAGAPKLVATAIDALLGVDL

MshC [2] = target: T1, MshC; conditions: for activity as alternative substrate to Cys, in words: 80 μM to 1.6 mM
MshC [3] = target: T1, MshC; experiment: biochemical; conditions: for IC50: IC50, μM; for inhibition of MshC in words, compounds grouped by X: X=S, X=SO, X=SO2

CC(=O)N[C@@H](CS)C(=O)O [AcCys, N-acetylcysteine]
inhibition of the ligase activity, in words (MshC [1]): minor inhibition
% inhibition (MshC [1]): 20 ± 6%
relative spec. act. (MshC [2]): ≦0.24
activity as alternative substrate to Cys, in words (MshC [2]): Nor was significant activity detected

N[C@@H](CS)C(=O)O [Cys, L-cysteine]
apparent Vmax (MshC [2]): 1450 ± 200 nmol/min/mg
Specific activity (MshC [2]; Cys 70 μM, 50 μM GlcN-Ins, 37° C.): ^cSpecific activity 108 nmol min^−1 mg^−1.
relative spec. act. (MshC [2]; Cys 70 μM, reference): (100)^c
Km (MshC [2]; as stated in the feedback inhibition paragraph, read-out: apparent Km value for Cys): 70 ± 15 µM
Km (MshC [2]; pH 7.5, read-out: apparent Km for L-Cys): 85 ± 20 µM

N[C@@H](CS)C(=O)N[C@H]1[C@@H](OC2[C@H](O)[C@H](O)C(O)[C@H](O)[C@H]2O)O[C@H](CO)[C@@H](O)[C@@H]1O (stereo partly shown) [Cys-GlcN-Ins, cysteinyl glucosaminyl inositol]
inhibition (feedback) (MshC [1]): < 1.0%

N[C@H](CS)C(=O)O [D-Cys]
inhibition of the ligase activity, in words (MshC [1]): very minor inhibition
% inhibition (MshC [1]): 15 ± 8%
relative spec. act. (MshC [2]): ≦0.7
activity as alternative substrate to Cys, in words (MshC [2]): poor substrate

N[C@H]1C(O)O[C@H](CO)[C@@H](O)[C@@H]1O (stereo partly drawn) [D-GlcN]
activity relative to GlcN-Ins (MshC [2]): ~1%
relative spec. act. (MshC [2]): 1.2

N[C@H]1[C@@H](O[C@@H]2[C@H](O)[C@H](O)[C@@H](O)[C@H](O)[C@H]2O)O[C@H](CO)[C@@H](O)[C@@H]1O [GlcN-Ins, 1-O-(2-amino-2-deoxy-α-D-glucopyranosyl)-D-myo-inositol]
apparent Vmax (MshC [2]; GlcN-Ins varied, 1 mM ATP and 0.5 mM Cys): 1160 ± 120 nmol/min/mg
Km (MshC [2]; pH 7.5, read-out: apparent Km for GlcN-Ins): 280 ± 43 µM

CCC1CCCCN1CCCNC(=O)c1ccc2c(c1)N(Cc1ccccc1F)C(=O)c1ccccc1[S+]2[O-] (stereo not shown) [Inhibitor 1137]
inhibition of MshC in words, 1,3-diaminopropyl residue with remote amino residue capable of protonation (MshC [3]): measurable inhibition
inhibition of MshC in words, Z is a benzyl moiety bearing one or more halogens (MshC [3]): Measurable inhibition
IC50 (MshC [3]): 1400 ± 700 µM
inhibition of MshC in words, compounds grouped by X (MshC [3]): Significant inhibition

CC1CC(C)CN(CCCNC(=O)c2ccc3c(c2)N(Cc2ccccc2F)C(=O)c2ccccc2S3(=O)=O)C1 (stereo not shown) [Inhibitor 1138]
IC50 (MshC [3]): > 3000 µM

Cc1ccc(C)c(CN2C(=O)c3ccccc3S(=O)(=O)c3ccc(C(=O)NCCN4CCCCC4)cc32)c1 [Inhibitor 1173]
IC50 (MshC [3]): > 2000 µM

Cc1ccc(CN2C(=O)c3ccccc3Sc3ccc(C(=O)NCC(C)CN4CCC(C)CC4)cc32)cc1 (stereo not shown) [Inhibitor 1671]
IC50 (MshC [3]): > 3000 µM

Cc1ccc(CN2C(=O)c3ccccc3Sc3ccc(C(=O)NCCCN4CC(C)CC(C)C4)cc32)cc1 (stereo not shown) [Inhibitor 1672]
IC50 (MshC [3]): > 3000 µM

CCN1C(=O)c2ccccc2Sc2ccc(C(=O)NCCCN(CC(C)C)CC(C)C)cc21 [Inhibitor 1751]
IC50 (MshC [3]): > 3000 µM

CCN1C(=O)c2ccccc2Sc2ccc(C(=O)NCCCN3CCCCC3)cc21 [Inhibitor 1754]
IC50 (MshC [3]): ~2000 µM
inhibition of MshC in words, compounds grouped by X (MshC [3]): Significant inhibition

O=C(NCCCN1CCCCC1)c1ccc2c(c1)N(Cc1cccc(Cl)c1)C(=O)c1ccccc1S2 [Inhibitor 1776]
inhibition of MshC in words, 1,3-diaminopropyl residue with remote amino residue capable of protonation (MshC [3]): measurable inhibition
inhibition of MshC in words, Z is a benzyl moiety bearing one or more halogens (MshC [3]): Measurable inhibition
IC50 (MshC [3]): 320 ± 50 µM
inhibition of MshC in words, compounds grouped by X (MshC [3]): Significant inhibition

O=C(NCCCN1CCCC1)c1ccc2c(c1)N(Cc1cccc(Cl)c1)C(=O)c1ccccc1S2 [Inhibitor 1779]
inhibition of MshC in words, 1,3-diaminopropyl residue with remote amino residue capable of protonation (MshC [3]): measurable inhibition
inhibition of MshC in words, Z is a benzyl moiety bearing one or more halogens (MshC [3]): Measurable inhibition
IC50 (MshC [3]): 135 ± 30 µM
inhibition of MshC in words, compounds grouped by X (MshC [3]): Significant inhibition

O=C(NCc1cccs1)c1ccc2c(c1)N(Cc1cccc(Cl)c1)C(=O)c1ccccc1S2 [Inhibitor 1781]
IC50 (MshC [3]): > 3000 µM

CCC1CCCCN1CCNC(=O)c1ccc2c(c1)N(Cc1ccc(F)cc1Cl)C(=O)c1ccccc1S2 (stereo not shown) [Inhibitor 1806]
inhibition of MshC in words, Z is a benzyl moiety bearing one or more halogens (MshC [3]): Measurable inhibition
IC50 (MshC [3]): ~750 µM
inhibition of MshC in words, compounds grouped by X (MshC [3]): Significant inhibition

CN(CCCNC(=O)c1ccc2c(c1)N(Cc1ccccc1Cl)C(=O)c1ccccc1S2)c1ccccc1 [Inhibitor 1920]
inhibition of MshC in words, compounds lacking the basic amino group or with groups in excess of 10 carbons on the remote amino residue (MshC [3]): little or no inhibition
IC50 (MshC [3]): > 3000 µM
